The source of these data is patent US8101760B2, “Glucocorticoid receptor modulator and methods of use” (Eli Lilly and Company, priority 2007, dated 2012).

The target in data set [1] is T1, human AR (androgen receptor) (Homo sapiens, UniProt P10275).
T1 construct: expressed in transfected cells; host or cells: HEK293 (lysate, '293-AR lysate')
T1 sequence (P10275 1-920): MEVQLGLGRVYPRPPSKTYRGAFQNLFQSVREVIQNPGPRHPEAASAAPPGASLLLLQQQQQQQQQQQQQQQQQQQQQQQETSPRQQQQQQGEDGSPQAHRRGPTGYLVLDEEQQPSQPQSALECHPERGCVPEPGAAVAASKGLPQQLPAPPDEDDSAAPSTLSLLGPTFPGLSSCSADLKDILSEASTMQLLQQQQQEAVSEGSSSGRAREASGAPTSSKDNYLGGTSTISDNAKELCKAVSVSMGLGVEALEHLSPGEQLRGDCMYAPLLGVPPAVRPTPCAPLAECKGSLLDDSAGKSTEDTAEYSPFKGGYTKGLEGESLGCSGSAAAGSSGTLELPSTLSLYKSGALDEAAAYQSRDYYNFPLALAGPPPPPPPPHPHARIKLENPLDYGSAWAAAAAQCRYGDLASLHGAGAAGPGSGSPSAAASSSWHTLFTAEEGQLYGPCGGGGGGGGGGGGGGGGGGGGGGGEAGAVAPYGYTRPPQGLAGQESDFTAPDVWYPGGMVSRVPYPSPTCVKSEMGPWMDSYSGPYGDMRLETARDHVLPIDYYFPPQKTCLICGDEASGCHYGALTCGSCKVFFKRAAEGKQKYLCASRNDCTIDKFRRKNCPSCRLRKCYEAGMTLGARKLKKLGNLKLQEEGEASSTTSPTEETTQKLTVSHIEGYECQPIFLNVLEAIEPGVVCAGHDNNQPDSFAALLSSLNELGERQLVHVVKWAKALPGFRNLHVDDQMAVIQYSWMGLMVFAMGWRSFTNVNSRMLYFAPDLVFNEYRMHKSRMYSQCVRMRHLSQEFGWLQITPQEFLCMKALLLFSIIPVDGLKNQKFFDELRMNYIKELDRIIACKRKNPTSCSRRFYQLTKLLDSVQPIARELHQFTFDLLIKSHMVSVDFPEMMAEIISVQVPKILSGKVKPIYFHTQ
In words: Nuclear hormone receptor binding assay, AR. The method, then:
Cell lysates from human embryonic kidney HEK293 cells overexpressing human GR (glucocorticoid receptor), AR (androgen receptor), MR (mineralocorticoid receptor), or PR (progesterone receptor) are used for receptor-ligand competition binding assays to determine Ki values.
Briefly, steroid receptor competition binding assays are run in a buffer containing 20 mM Hepes buffer (pH=7.6), 0.2 mM EDTA, 75 mM NaCl, 1.5 mM MgCl2, 20% glycerol, 20 mM sodium molybdate, 0.2 mM DTT (dithiothreitol), 20 μg/mL aprotinin and 20 μg/mL leupeptin. Typically, steroid receptor binding assays include radio-labeled ligands, such as 0.3 nM [^3H]-dexamethasone for GR binding, 0.36 nM [^3H]-methyltrienolone for AR binding, 0.25 nM [^3H]-aldosterone for MR binding, and 0.29 nM [^3H]-methyltrienolone for PR binding, and either 20 μg 293-GR lysate, 22 μg 293-AR lysate, 20 μg 293-MR lysate or 40 μg 293-PR lysate per well. Assays are typically run in 96-well format. Competing test compounds are added at various concentrations ranging from about 0.01 nM to 10 μM. Non-specific binding is determined in the presence of 500 nM dexamethasone for GR binding, 500 nM aldosterone for MR binding, or 500 nM methyltrienolone for AR and PR binding. […] After an incubation of 2 hours, plates are read in a Wallac Microbeta counter. […]

The target in data set [2] is T2, human androgen receptor (AR) (Homo sapiens, UniProt P10275).
T2 construct: expressed in transfected cells; host or cells: HEK293, transient transfection (Fugene), CMV promoter plasmid
T2 sequence (P10275 1-920): T1 sequence (P10275 1-920)
Nature of the data set: Nuclear hormone receptor functional modulation assay (ARE-luciferase, HEK293), AR. Format: cell-based. The text has this:
The solvents, reagents, and ligands employed in the functional assay are readily available from commercial sources, or can be prepared by one of ordinary skill in the art.
Human embryonic kidney HEK293 cells are transfected with steroid hormone receptor and reporter gene plasmids using Fugene™ (Roche Diganostics) transfection reagent. Briefly, the reporter plasmid containing two copies of probasin ARE (androgen response element 5′GGTTCTTGGAGTACT3′ (SEQ ID NO:1)) and TK(thymidine kinase) promoter upstream of the luciferase reporter cDNA, is transfected into HEK293 cells with a plasmid constitutively expressing human androgen receptor (AR) using viral CMV(cytomegalovirus) promoter. The reporter plasmid containing two copies of GRE (glucocorticoid response element 5′TGTACAGGATGTTCT′3 (SEQ ID NO:2)) and TK promoter upstream of the luciferase reporter cDNA is transfected with a plasmid constitutively expressing either human glucocorticoid receptor (GR), human mineralocorticoid receptor (MR), or human progesterone receptor (PR) using viral CMV promoter. Cells are transfected in T150 cm flasks in DMEM media with 5% charcoal-stripped Fetal Bovine Serum (FBS). […] In the antagonist mode for the assays, low concentrations of agonist for each respective receptor are added to the media (0.25 nM dexamethasone for GR, 0.3 nM of methyltrienolone for AR, 0.05 nM of promegestone for PR and 0.05 nM aldosterone for MR), and the ability of test compound to antagonize the agonist response is determined. After 24 hours of incubation with test compounds, cells are lysed and luciferase activity is determined using standard techniques.
Data are fitted to a four parameter-fit logistic curve fit to determine EC50 values. […] IC50 values may be determined similarly using antagonist mode assay data. Percent inhibitions may also be determined relative to the response in the presence of agonist alone, as described above.

For data set [3], the system named is human hepatocyte cultures. In words: Metabolism in human hepatocyte cultures in vitro. Format: in vitro ADME.
A short description of data set [4]: Hygroscopicity and solid-state stability. Format: physicochemical.

Take `CC/C(=C1\c2ccc(Cl)cc2OCc2ncccc21)c1cccc(NS(C)(=O)=O)c1` [Compound (I), (E)-N-{3-[1-(8-Chloro-11H-10-oxa-1-aza-dibenzo[a,d]cyclohepten-5-ylidene)-propyl]-phenyl}-methanesulfonamide]: the Ki (commonly a dissociation constant, usually derived from enzyme kinetics or from competition with a known ligand) in data set [1] (HEK293 cell lysate expressing human AR, [3H]-methyltrienolone, mean of 5 determinations) is 16.2 nM. Moreover, the “greater affinity for GR relative to AR” value in data set [1] (binding selectivity GR vs AR) is listed as ≥ 30 fold. For the same molecule, in data set [2] (agonist mode, activating transcription), the EC50 (usually the concentration giving half of the maximal effect) was > 10000 nM. Also, the “modulation of gene expression mediated by AR” value in data set [2] (functional modulation, in words) is given as “only limited activity”. Further, in data set [2] (percent efficacy at 10 μM relative to 100 nM methyltrienolone, mean of 3), the “AR % Eff.” value worked out at 2.4%. The “metabolism when incubated with human hepatocyte cultures” value in data set [3] is “only minor metabolism”. Besides, the hygroscopicity entry in data set [4] was “non-hygroscopic”. The stability result in data set [4] (increased temperature, relative humidity, and light exposure) is given as “stable”.
